Converted amounts (≈) assume the structure as drawn.

The MIC is the least concentration at which growth counts as inhibited. A word on the CC50: it is the concentration at which the toxic effect on the cells reaches its halfway point.

The test system of data set [1] is Escherichia coli. Kind of data set: Antibacterial activity against extended-spectrum beta-lactamase harboring Escherichia coli 13-1 after 18 hrs by CLSI broth microdilution method. The data set is classed as functional. The conditions noted are these: 13-1, 18 h. Background: Dilution methods test growth across graded concentrations, often in twofold steps.
Data set [2] deals with Pseudomonas aeruginosa. Kind of data set: Antibacterial activity against Pseudomonas aeruginosa 12-16 after 18 hrs by CLSI broth microdilution method. The format is functional. Conditions: 12-16, 18 h.
Data set [3] relates to Staphylococcus aureus. Briefly: Antibacterial activity against methicillin-sensitive Staphylococcus aureus 12-28 after 18 hrs by CLSI broth microdilution method. The data set is classed as functional. Conditions: 12-28, 18 h.
Data set [4] deals with Proteus vulgaris. Briefly: Antibacterial activity against Proteus vulgaris ATCC 29905 after 18 hrs by CLSI broth microdilution method. The format is functional. Conditions: ATCC 29905, 18 h.
Data set [5] deals with Klebsiella pneumoniae. Kind of data set: Antibacterial activity against extended-spectrum beta-lactamase deficient Klebsiella pneumoniae 12-4 after 18 hrs by CLSI broth microdilution method. The data set is classed as functional. Conditions: 12-4, 18 h.
Data set [6] relates to Staphylococcus aureus. Kind of data set: Antibacterial activity against methicillin-resistant Staphylococcus aureus 12-33 after 18 hrs by CLSI broth microdilution method. The format is functional. The conditions noted are these: 12-33, 18 h.
Data set [7] deals with Enterococcus faecium. Briefly: Antibacterial activity against vancomycin-resistant Enterococcus faecium 12-1 after 18 hrs by CLSI broth microdilution method. Conditions: 12-1, 18 h. The format is functional.
The test system of data set [8] is Staphylococcus aureus. Briefly: Antibacterial activity against methicillin-sensitive Staphylococcus aureus ATCC 29213 after 18 hrs by CLSI broth microdilution method. The data set is classed as functional. The conditions noted are these: ATCC 29213, 18 h.
A short description of data set [9]: Cytotoxicity against HEK293T cells assessed as reduction in cell viability after 48 hrs by MTS assay. Conditions: human. The data set is classed as cell-based, HEK-293T. In general terms: Formazan colour is commonly taken as a measure of viable cells.
The test system of data set [10] is Citrobacter freundii. Briefly: Antibacterial activity against Citrobacter freundii ATCC 43864 after 18 hrs by CLSI broth microdilution method. The format is functional. Conditions: ATCC 43864, 18 h.
The test system of data set [11] is Klebsiella aerogenes. Kind of data set: Antibacterial activity against carbapenem-resistant Enterobacter aerogenes 11-4 after 18 hrs by CLSI broth microdilution method. The data set is classed as functional. Conditions: 11-4, 18 h.
Data set [12] has as its system Serratia marcescens. Briefly: Antibacterial activity against Serratia marcescens ATCC 21074 after 18 hrs by CLSI broth microdilution method. The data set is classed as functional. Conditions: ATCC 21074, 18 h.
The test system of data set [13] is Staphylococcus aureus. Briefly: Antibacterial activity against methicillin-resistant Staphylococcus aureus ATCC 33591 infected in ICR mouse assessed as mouse survival at 3.5 mg/kg, iv administered at 1 and 5 hrs post infection and measured on day 7 day post last dose (reference value: 0%). The format is functional. The conditions noted are these: ATCC 33591, iv.

Data set [14] deals with Enterobacter cloacae. Briefly: Antibacterial activity against new delhi metallo-beta-lactamase-1 harboring Enterobacter cloacae CDC1000654 after 18 hrs by CLSI broth microdilution method. The data set is classed as functional. Conditions: CDC1000654, 18 h.

As for `CN(C)C(=N)c1ccc2cc(-c3ccc(-c4cc5ccc(C(=N)N(C)C)cc5[nH]4)cc3)[nH]c2c1`, the MIC in [1] worked out at 2 µg/mL (≈ 4.46 µM); in data set [2] it was 64 µg/mL (≈ 143 µM); in [3] it was 0.25 µg/mL (≈ 0.557 µM); in data set [4], 4 µg/mL (≈ 8.92 µM); in data set [5], 4 µg/mL (≈ 8.92 µM); in data set [6], 0.25 µg/mL (≈ 0.557 µM). Also, the minimum inhibitory concentration (MIC) in data set [7] came to 0.5 µg/mL (≈ 1.11 µM); in data set [8] it was 0.25 µg/mL (≈ 0.557 µM); in data set [10] it was 2 µg/mL (≈ 4.46 µM); in data set [11], 8 µg/mL (≈ 17.8 µM); in data set [12], 16 µg/mL (≈ 35.7 µM); in [14] it was 4 µg/mL (≈ 8.92 µM). Further, the CC50 at 48 h in data set [9] is 4.13 µg/mL (≈ 9.21 µM). The survival at 3.5 mg/kg in data set [13] came out at 80%.

Values taken from ChEMBL document CHEMBL4229379, “Synthesis and structure-activity relationship of novel bisindole amidines active against MDR Gram-positive and Gram-negative bacteria” (Eur J Med Chem, 2018).
